# Results taken from ChEMBL document CHEMBL1131278, “Synthesis and in vitro cancer cell growth inhibitory activity of monocyclic model compounds containing spongistatin triene side-chains” (Bioorg Med Chem Lett, 1998).
# Tests used:
# Type in all cases: functional
# [1] = molecular target: Tubulin alpha chain (Sus scrofa, UniProt P02550); assay: Compound was tested for its ability to inhibit the glutamate induced polymerization of tubulin
# [2] = system: SK-N-SH; assay: In vitro growth inhibitory activity against cancer cell line Neuroblast SK-N-SH; conditions: Homo sapiens
# [3] = system: NCI-H460; assay: In vitro growth inhibitory activity against cancer cell line Lung-NSC NCI-H460; conditions: Homo sapiens
# [4] = system: FaDu; assay: In vitro growth inhibitory activity against cancer cell line Pharynx-sq FADU; conditions: Homo sapiens
# [5] = system: SW-1736; assay: In vitro growth inhibitory activity against cancer cell line Thyroid ca SW 1736; conditions: Homo sapiens
# [6] = system: DU-145; assay: In vitro growth inhibitory activity against cancer cell line Prostate DU-145; conditions: Homo sapiens
# [7] = system: BXPC-3; assay: In vitro growth inhibitory activity against cancer cell line Pancreas-a BXPC-3; conditions: Homo sapiens
# Tubulin alpha chain, sequence (P02550 whole entry, looked up): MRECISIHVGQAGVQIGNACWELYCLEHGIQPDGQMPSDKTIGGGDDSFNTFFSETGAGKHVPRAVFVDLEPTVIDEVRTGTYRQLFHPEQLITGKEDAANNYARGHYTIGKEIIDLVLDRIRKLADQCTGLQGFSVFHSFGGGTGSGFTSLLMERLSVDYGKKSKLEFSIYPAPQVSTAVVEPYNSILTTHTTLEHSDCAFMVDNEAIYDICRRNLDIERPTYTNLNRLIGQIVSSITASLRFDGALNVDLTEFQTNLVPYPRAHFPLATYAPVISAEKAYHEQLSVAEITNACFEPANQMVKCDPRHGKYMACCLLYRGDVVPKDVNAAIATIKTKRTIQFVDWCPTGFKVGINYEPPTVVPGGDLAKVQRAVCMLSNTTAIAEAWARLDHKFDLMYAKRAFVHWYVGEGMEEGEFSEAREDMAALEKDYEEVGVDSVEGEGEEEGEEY
SMILES,IC50 [1] [µM],GI50 [2] [µg/mL],GI50 [3] [µg/mL],GI50 [4] [µg/mL],GI50 [5] [µg/mL],GI50 [6] [µg/mL],GI50 [7] [µg/mL]
C=C(Cl)/C=C/[C@@H](O)C(C)C(=C)C[C@H]1O[C@@H]2[C@H](C)[C@@H](OC(=O)C[C@H]3C[C@H](OC(C)=O)C[C@@]4(C[C@@](C)(O)C[C@H](CC(=C)[C@@H](C)[C@H](OC(C)=O)[C@H](C)C(=O)C[C@@H]5C[C@H](OC)C[C@@]6(C[C@@H](O)C[C@H](/C=C\CCC[C@H]7O[C@](O)(C[C@H](O)[C@H]7C)[C@H]2O)C6)O5)O4)O3)[C@@H]1O (stereo partly drawn) [Spongistatin-1],3.6,–,–,–,–,–,–
C=C/C=C/[C@@H](O)CC(=C)C[C@H]1O[C@H](OC)[C@H](OCc2ccccc2)[C@@H](OCc2ccccc2)[C@@H]1OCc1ccccc1,–,0.31,0.26,0.27,0.7,0.32,0.25
C=C(Cl)/C=C/[C@@H](O)CC(=C)C[C@H]1O[C@H](OC)[C@H](OCc2ccccc2)[C@@H](OCc2ccccc2)[C@@H]1OCc1ccccc1,–,2.2,6.6,5,5.8,> 10,3.2
